Results from patent publication US5594006A, “Carbostyril derivatives as matrix metalloproteinases inhibitors” (Otsuka Pharmaceutical Co., Ltd., priority 1993, dated 1997).

How the values were obtained:
Interstitial collagenase = molecular target: T1, Interstitial collagenase (Homo sapiens, UniProt P03956); experiment: Interstitial collagenase inhibiting activity (fluorescence labeled collagen); type: biochemical; conditions: from human fibroblast cell (Detroit 551); 2 hours at 35° C., pH 7.5
T1 construct: endogenous in cells; host or cells: Detroit 551 (human fibroblasts), culture supernatant, purified
T1 sequence (P03956 100-469): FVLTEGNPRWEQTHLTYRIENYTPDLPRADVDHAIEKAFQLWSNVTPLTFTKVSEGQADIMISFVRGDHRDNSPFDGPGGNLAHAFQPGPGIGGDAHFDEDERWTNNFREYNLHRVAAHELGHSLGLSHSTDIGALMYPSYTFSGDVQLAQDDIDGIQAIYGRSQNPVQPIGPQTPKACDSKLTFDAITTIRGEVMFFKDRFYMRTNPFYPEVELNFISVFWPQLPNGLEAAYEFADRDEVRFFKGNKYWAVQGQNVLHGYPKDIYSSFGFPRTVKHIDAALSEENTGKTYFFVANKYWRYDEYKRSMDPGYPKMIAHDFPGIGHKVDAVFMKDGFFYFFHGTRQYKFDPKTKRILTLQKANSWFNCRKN
Experimental: (2) Measuring Method of Interstitial Collagenase Inhibiting Activity
Inhibiting of interstitial collagenase refined from the culture supernatant of human fibroblast cell (Detroit 551 cell) was measured by using fluorescence labeled collagen, according to the method proposed by Nagai et al. [Inflammation, 4 (2), 123 (1984)].
The enzyme was activated by incubating for 3 hours at 37° C. in 1 mM mercury (II) p-aminophenylacetate. The test compound was used by dissolving in dimethyl sulfoxide. The enzyme reaction was started by adding the activated enzyme in 50 mM TRIS-hydrochloric acid (pH 7.5), 0.2M NaCl, 5 mM CaCl2, 0.02% (w/v) NaN3, 2.5 mM acetic acid, and 0.1% (v/v) dimethyl sulfoxide solution containing the test compound and 0.025% (w/v) of fluorescence labeled collagen as substrate. The reaction was conducted for 2 hours at 35° C., and stopped by adding ice-chilled 80 mM O-phenanthroline, 50% (v/v) ethanol solution by 1/20 amount. To this, moreover, an equivalent volume of 50 mM TRIS-hydrochloric acid (pH 7.5), 0.2M NaCl, 5 mM CaCl2, 0.02% (w/v) NaN3 solution was added to incubate further for 1 hour at 35° C. to degenerate specifically only the digestion product, and the digestion product was extracted by adding 0.17M TRIS-hydrochloric acid (pH 9.5), 0.67M NaCl solution including an equivalent amount of 70% (v/v) ethanol, and afterwards, by centrifugal separation for 15 minutes at 3000 rpm, 4° C., the undigested substrate was precipitated. The fluorescence intensity of the obtained supernatant was measured at 520 nm (Em)/495 nm (Ex), and the decomposition volume was quantitatively determined.
(§1) The enzyme inhibiting activity was expressed by the concentration (IC50) of the test compound wherein the enzyme activity of known amount was inhibited till 50%.

Stromelysin = molecular target: T2, Stromelysin (Mus musculus, UniProt P28862); experiment: Stromelysin inhibiting activity (fluorescence labeled casein); type: biochemical; conditions: from mouse colon cancer cell (Colon 26); 3 hours at 37° C., pH 7.5
T2 construct: endogenous in cells; host or cells: Colon 26 (mouse colon cancer cells), culture supernatant, purified
T2 sequence (P28862 100-477): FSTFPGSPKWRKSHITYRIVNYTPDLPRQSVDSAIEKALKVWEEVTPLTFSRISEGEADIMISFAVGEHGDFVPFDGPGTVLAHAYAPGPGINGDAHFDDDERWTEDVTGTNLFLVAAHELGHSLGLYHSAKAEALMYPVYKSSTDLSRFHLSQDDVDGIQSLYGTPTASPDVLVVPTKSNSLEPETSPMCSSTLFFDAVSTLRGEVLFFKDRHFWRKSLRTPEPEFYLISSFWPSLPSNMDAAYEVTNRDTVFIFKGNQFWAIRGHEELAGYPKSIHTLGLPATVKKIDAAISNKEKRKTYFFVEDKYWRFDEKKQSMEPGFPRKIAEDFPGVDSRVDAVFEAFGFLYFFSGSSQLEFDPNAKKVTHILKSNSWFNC
Experimental: (1) Measuring Method of Stromelysin Inhibiting Activity
Inhibiting of Stromelysin refined from the culture supernatant of mouse colon cancer cell (Colon 26 cell) was measured by using fluorescence labeled casein, according to the method proposed by Miyazaki et al. (J. Biochem., 108, 537-543, 1990), and S. S. Twining [Fed. Proc., 42, 1951 (1984)].
The enzyme was activated by incubating for 2 hours at 37° C. in 1 mM mercury (II) p-aminophenylacetate. The test compound was used by dissolving in dimethyl sulfoxide. The enzyme reaction was started by adding the activated enzyme in a solution of 50 mM TRIS-hydrochloric acid (pH 7.5), 10 mM CaCl2, and 0.1% (v/v) dimethyl sulfoxide containing the test compound and 0.25% (w/v) of fluorescence labeled casein as substrate. The reaction was conducted for 3 hours at 37° C., and stopped by adding an equivalent amount of 5% (w/v) trichloroacetic acid solution. Afterwards, by centrifugal separation for 15 minutes at 3000 rpm, 4° C., the undigested substrate was precipitated, and to 1 part by volume of the obtained supernatant, 4 parts by volume of 0.3M phosphate buffer (pH 8.5) was added, and the fluorescence intensity was measured at 520 nm (Em)/495 nm (Ex), and the decomposition volume was quantitatively determined.
as §1

IC50 (Interstitial collagenase) [nM]	IC50 (Stromelysin) [nM]	Compound
160	380	CCOC(=O)CN1C(=O)[C@@H](NC(=O)[C@@H](CC(=O)NO)CC(C)C)Cc2ccccc21 [Test compound 8, 1-ethoxycarbonylmethyl-3S-[4-(N-hydroxyamino)-2R-isobutylsuccinyl]amino-3,4-dihydrocarbostyril]
22	36	CON1C(=O)[C@@H](NC(=O)[C@H](CC(C)C)[C@H](C)C(=O)NO)Cc2ccccc21 [Test compound 9, 3S-[4-(N-hydroxyamino)-2R-isobutyl-3S-methylsuccinyl]amino-1-methoxy-3,4-dihydrocarbostyril]
31	200	CC(C)C[C@H](CC(=O)NO)C(=O)N[C@H]1Cc2ccccc2N(CC(N)=O)C1=O [Test compound 10, 1-aminocarbonylmethyl-3S-[4-(N-hydroxyamino)-2R-isobutylsuccinyl]amino-3,4-dihydrocarbostyril]
750	290	COC(=O)c1ccc(CN2C(=O)[C@@H](NC(=O)[C@@H](CC(=O)NO)CC(C)C)Cc3ccccc32)cc1 [Test compound 11, 3S-[4-(N-hydroxyamino)-2R-isobutylsuccinyl]amino-1-(4-methoxycarbonylbenzyl)-3,4-dihydrocarbostyril]
290	700	CCN1C(=O)[C@@H](NC(=O)[C@@H](CC(=O)NO)CC(C)C)Cc2ccccc21 [Test compound 12, 1-ethyl-3S-[4-(N-hydroxyamino)-2R-isobutylsuccinyl]amino-3,4-dihydrocarbostyril]
10	28	C=CCN1C(=O)[C@@H](NC(=O)[C@H](CC(C)C)[C@H](C)C(=O)NO)Cc2ccccc21 [Test compound 13, 1-allyl-3S-[4-(N-hydroxyamino)-2R-isobutyl-3S-methylsuccinyl]amino-3,4-dihydrocarbostyril]
22	37	COCN1C(=O)[C@@H](NC(=O)[C@@H](CC(=O)NO)CC(C)C)Cc2ccccc21 [Test compound 14, 3S-[4-(N-hydroxyamino)-2R-isobutylsuccinyl]amino-1-methoxymethyl-3,4-dihydrocarbostyril]
20	–	C#CCN1C(=O)[C@@H](NC(=O)[C@H](CC(C)C)[C@H](C)C(=O)NO)Cc2ccccc21 [Test compound 15, 3S-[4-(N-hydroxyamino)-2R-isobutyl-3S-methylsuccinyl]amino-1-(2-propynyl)-3,4-dihydrocarbostyril]
69	–	CC(C)C[C@@H](C(=O)N[C@H]1Cc2ccccc2N(CC(=O)O)C1=O)[C@H](C)C(=O)NO [Test compound 16, 1-carboxymethyl-3S-[4-(N-hydroxyamino)-2R-isobutyl-3S-methylsuccinyl]amino-3,4-dihydrocarbostyril]
41	–	CCON1C(=O)[C@@H](NC(=O)[C@@H](CC(=O)NO)CC(C)C)Cc2ccccc21 [Test compound 17, 1-ethoxy-3S-[4-(N-hydroxyamino)-2R-isobutylsuccinyl]amino-3,4-dihydrocarbostyril]
88	–	COCCOCN1C(=O)[C@@H](NC(=O)[C@@H](CC(=O)NO)CC(C)C)Cc2ccccc21 [Test compound 18, 3S-[4-(N-hydroxyamino)-2R-isobutylsuccinyl]amino-1-methoxyethoxymethyl-3,4-dihydrocarbostyril]
220	–	CCCCCCC[C@H](CC(=O)NO)C(=O)N[C@H]1Cc2ccccc2N(OC)C1=O [Test compound 20, 3S-[4-(N-hydroxyamino)-2R-heptylsuccinyl]amino-1-methoxy-3,4-dihydrocarbostyril]
110	–	COCCN1C(=O)[C@@H](NC(=O)[C@@H](CC(=O)NO)CC(C)C)Cc2ccccc21 [Test compound 21, 3S-[4-(N-hydroxyamino)-2R-isobutylsuccinyl]amino-1-methoxyethyl-3,4-dihydrocarbostyril]
3700	–	CCOCC[C@H](CC(=O)NO)C(=O)N[C@H]1Cc2ccccc2N(OC)C1=O [Test compound 22, 3S-[4-(N-hydroxyamino)-2R-ethoxyethylsuccinyl]amino-1-methoxy-3,4-dihydrocarbostyril]
0.064	–	CON1C(=O)[C@@H](NC(=O)[C@H](CC(C)C)C(Cc2ccc3c(c2)OCO3)C(=O)NO)Cc2ccccc21 (stereo partly drawn) [Test compound 23, 3S-[4-(N-hydroxyamino)-2R-isobutyl-3-(3,4-methylenedioxybenzyl)succinyl]amino-1-methoxy-3,4-dihydrocarbostyril]
740	–	COCCN1C(=O)[C@@H](NC(=O)[C@@H](CC(=O)NO)CC(C)C)Cc2cc3c(cc21)OCO3 [Test compound 24, 3S-[4-(N-hydroxyamino)-2R-isobutylsuccinyl]amino-1-methoxyethyl-6,7-methylenedioxy-3,4-dihydrocarbostyril]
4100	–	COCCN1C(=O)[C@H](NC(=O)[C@@H](CC(=O)NO)CC(C)C)Cc2cc3c(cc21)OCO3 [Test compound 25, 3R-[4-(N-hydroxyamino)-2R-isobutylsuccinyl]amino-1-methoxyethyl-6,7-methylenedioxy-3,4-dihydrocarbostyril]
1000	–	COCCN1C(=O)C(NC(=O)[C@@H](CC(=O)NO)CC(C)C)Cc2cc3c(cc21)OCO3 (stereo partly drawn) [Test compound 26, 3-[4-(N-hydroxyamino)-2R-isobutylsuccinyl]amino-1-methoxyethyl-6,7-methylendioxy-3,4-dihydrocarbostyril]
87	–	CCN1C(=O)[C@@H](NC(=O)[C@@H](CC(=O)NO)CC(C)C)Cc2cc3c(cc21)OCO3 [Test compound 28, 1-ethyl-3S-[4-(N-hydroxyamino)-2R-isobutylsuccinyl]amino-6,7-methylenedioxy-3,4-dihydrocarbostyril]
11	–	CCCCC[C@H](CC(=O)NO)C(=O)N[C@H]1Cc2ccccc2N(OC)C1=O [Test compound 30, 3S-[4-(N-hydroxyamino)-2R-pentylsuccinyl]amino-1-methoxy-3,4-dihydrocarbostyril]
370	–	COCON1C(=O)[C@@H](NC(=O)[C@@H](CC(=O)NO)CC(C)C)Cc2ccccc21 [Test compound 31, 3S-[4-(N-hydroxyamino)-2R-isobutylsuccinyl]amino-1-methoxymethoxy-3,4-dihydrocarbostyril]
